Test: relative permittivity at zero frequency (dimensionless)
Conditions: 101.33 kPa, Liquid, Parallel plate capacitor

O=C1CCCCCC1 [cycloheptanone]
Conditions	relative permittivity at zero frequency
245.65 K	15.35
248.15 K	15.22
250.65 K	15.09
253.15 K	14.97
255.65 K	14.85
258.15 K	14.72
260.65 K	14.57
263.15 K	14.47
265.65 K	14.36
268.15 K	14.25
270.65 K	14.14
273.15 K	14.03
275.65 K	13.91
278.15 K	13.8
280.65 K	13.69
283.15 K	13.58
285.65 K	13.46
288.15 K	13.35
290.65 K	13.25
293.15 K	13.14
295.65 K	13.03
298.15 K	12.92
300.65 K	12.82
303.15 K	12.72
305.65 K	12.62
308.15 K	12.51
310.65 K	12.41
313.15 K	12.32

O=C1CCCCC1 [cyclohexanone]
Conditions	relative permittivity at zero frequency
243.15 K	19.75
245.65 K	19.54
248.15 K	19.34
250.65 K	19.13
253.15 K	18.93
255.65 K	18.73
258.15 K	18.54
260.65 K	18.34
263.15 K	18.15
265.65 K	17.96
268.15 K	17.78
270.65 K	17.6
273.15 K	17.42
275.65 K	17.24
278.15 K	17.07
280.65 K	16.9
283.15 K	16.73
285.65 K	16.56
288.15 K	16.4
290.65 K	16.24
293.15 K	16.08
295.65 K	15.92
298.15 K	15.77
300.65 K	15.62
303.15 K	15.46
305.65 K	15.32
308.15 K	15.17
310.65 K	15.03
313.15 K	14.89

O=C1CCCC1 [cyclopentanone]
Conditions	relative permittivity at zero frequency
243.15 K	15.66
245.65 K	15.56
248.15 K	15.46
250.65 K	15.36
253.15 K	15.26
255.65 K	15.15
258.15 K	15.05
260.65 K	14.95
263.15 K	14.85
265.65 K	14.75
268.15 K	14.65
270.65 K	14.55
273.15 K	14.45
275.65 K	14.35
278.15 K	14.25
280.65 K	14.15
283.15 K	14.06
285.65 K	13.96
288.15 K	13.86
290.65 K	13.77
293.15 K	13.67
295.65 K	13.58
298.15 K	13.49
300.65 K	13.39
303.15 K	13.3
305.65 K	13.22
308.15 K	13.13
310.65 K	13.04
313.15 K	12.95

O=C1CCCCCCC1 [cyclooctanone]
Conditions	relative permittivity at zero frequency
298.15 K	14.54
303.15 K	14.22
305.65 K	14.05
308.15 K	13.89
310.65 K	13.74
313.15 K	13.57
315.65 K	13.42
318.15 K	13.27
320.65 K	13.14
323.15 K	12.99
325.65 K	12.85
328.15 K	12.71
330.65 K	12.58
333.15 K	12.44
335.65 K	12.3
338.15 K	12.17
340.65 K	12.04
343.15 K	11.9

O=C1CCC1 [cyclobutanone]
Conditions	relative permittivity at zero frequency
243.15 K	17.96
245.65 K	17.81
248.15 K	17.66
250.65 K	17.51
253.15 K	17.37
255.65 K	17.22
258.15 K	17.07
260.65 K	16.93
263.15 K	16.79
265.65 K	16.65
268.15 K	16.51
270.65 K	16.37
273.15 K	16.24
275.65 K	16.11
278.15 K	15.98
280.65 K	15.85
283.15 K	15.72
285.65 K	15.58
288.15 K	15.46
290.65 K	15.33
293.15 K	15.2
295.65 K	15.08
298.15 K	14.96
300.65 K	14.84
303.15 K	14.72
305.65 K	14.6
308.15 K	14.48
310.65 K	14.37
313.15 K	14.25
